Patent EP4818158A1, “BIARYL COMPOUND” (Kissei Pharmaceutical Co., Ltd., priority 2023, dated 2025)
pIC50: −log10 of the molar value.

Target: T1, human TSHR (Homo sapiens, UniProt P16473)
T1 construct: expressed in transfected cells
Assay: Antagonist activity using TSH-induced cAMP generation in human TSHR-stably expressing CHO cells
Assay type: cell-based
Conditions: human TSH 50 ng/mL
Protocol: Measurement of antagonist activity using TSH-induced cAMP generation in human TSHR-stably expressing CHO cells as an indicator
The gene sequence (reference number: NM_000369.2) of a human TSHR was inserted into multiple cloning sites of pcDNA3.1 (+). Prepared plasmid vectors were introduced into CHO cells using a lipofection method, and human TSHR-stably expressing CHO cells were established. Obtained cells were seeded in a 96-well poly-D-lysine-coated plate at 5 × 10^4 cells/well and cultured in an F12 culture medium containing 10%FBS, 400 µg/mL of G418, 50 U/mL of penicillin, and 50 µg/mL of streptomycin under conditions of 37°C and 5% CO2 for one day. After the culture medium was removed, the cells were washed twice with 100 µL of an assay buffer solution (Hanks' Balanced Salt Solution containing 20 mM HEPES and 1 mM IBMX) per well. 30 µL of a test compound-containing assay buffer solution was added to the well and incubated at room temperature for 15 minutes. Next, 30 µL of an assay buffer solution containing human TSH (final concentration: 50 ng/mL, R&D Systems, Inc.) was added thereto and incubated at 37°C for one hour. A supernatant was removed, a Lysis and Detection Buffer 2(Cisbio) was added thereto, and the mixture was incubated at room temperature for one hour to prepare a cell lysate. According to the instruction manual of a cAMP Gs HiRange kit (Cisbio), the cell lysate, d2-labeled cAMP, and anti-cAMP Europium Cryptate labeled antibodies (Cisbio) were reacted together in a 384-well white microplate. Next, fluorescence intensity ratios (measurement wavelengths: 665 nm/620 nm) were measured using a multi-plate reader (PHERAstar FSX, BMG LABTECH, Japan). The fluorescence intensity ratio of each sample was converted to a cAMP content using a standard curve. The cAMP content was converted as a percentage of the control value to calculate a cAMP generation rate. The cAMP generation rates were plotted against the test compound concentrations using Prism (Graph Pad Software Inc.) to calculate IC50 values. The IC50's of the individual test compounds are shown in the above tables. In the tables, IC50 < 0.3 µM was denoted as A, and 0.3 µM ≤ IC50 < 30 µM was denoted as B. Cases where the IC50 values were not calculated for test compounds from which activity was recognized are denoted as C.

T1 sequence (P16473 21-764): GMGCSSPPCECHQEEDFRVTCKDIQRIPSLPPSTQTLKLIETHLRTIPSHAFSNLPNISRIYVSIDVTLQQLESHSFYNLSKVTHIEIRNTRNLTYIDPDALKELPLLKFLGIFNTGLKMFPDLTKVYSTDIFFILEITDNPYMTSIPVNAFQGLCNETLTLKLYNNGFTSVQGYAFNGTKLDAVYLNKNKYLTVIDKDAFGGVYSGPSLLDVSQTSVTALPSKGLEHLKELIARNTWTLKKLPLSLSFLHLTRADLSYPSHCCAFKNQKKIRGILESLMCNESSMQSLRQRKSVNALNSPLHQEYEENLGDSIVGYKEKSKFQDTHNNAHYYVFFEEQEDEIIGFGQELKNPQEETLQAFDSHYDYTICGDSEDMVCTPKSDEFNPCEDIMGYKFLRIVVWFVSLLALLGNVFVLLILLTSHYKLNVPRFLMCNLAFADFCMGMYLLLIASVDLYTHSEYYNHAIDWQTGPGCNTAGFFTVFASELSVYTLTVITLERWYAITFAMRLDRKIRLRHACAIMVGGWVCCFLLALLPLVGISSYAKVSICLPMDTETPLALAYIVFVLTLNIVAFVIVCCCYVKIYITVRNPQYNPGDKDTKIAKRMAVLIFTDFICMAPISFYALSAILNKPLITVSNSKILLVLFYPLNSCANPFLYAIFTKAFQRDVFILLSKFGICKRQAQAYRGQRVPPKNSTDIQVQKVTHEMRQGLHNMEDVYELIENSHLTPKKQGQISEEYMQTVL

Structure (SMILES)	pIC50
CC(C)(C)OC(=O)Nc1c(F)cc(-c2cccnc2CNC(N)=O)c(Cc2ccccc2F)c1F [Example A-14, tert-Butyl (2,6-difluoro-3-(2-fluorobenzyl)-4-(2-(ureidomethyl)pyridin-3-yl)phenyl)carbamate]	> 6.52
NC(=O)NCc1ncccc1-c1ccc(NC(=O)OC2CC(F)(F)C2)c(F)c1Oc1ccccc1F [Example B-5]	4.52 to 6.52
Cc1ccnc(CNC(N)=O)c1-c1ccc(NC(=O)OC(C)(C)C)c(F)c1Cc1ccccc1 [Example A-9, tert-Butyl (3-benzyl-2-fluoro-4-(4-methyl-2-(ureidomethyl)pyridin-3-yl)phenyl)carbamate]	4.52 to 6.52
CC1(OC(=O)Nc2ccc(-c3ccnnc3CNC(N)=O)c(Cc3ccccc3F)c2F)CC1 [Example C-3, 1-Methylcyclopropyl (2-fluoro-3-(2-fluorobenzyl)-4-(3-(ureidomethyl)pyridazin-4-yl)phenyl)carbamate]	4.52 to 6.52
C[C@@H](OC(=O)Nc1ccc(-c2ccnnc2CCC(N)=O)c(Cc2ccccc2F)c1F)C1CC1 [Example C-6, (R)-1-Cyclopropylethyl (4-(3-(3-amino-3-oxopropyl)pyridazin-4-yl)-2-fluoro-3-(2-fluorobenzyl)phenyl)carbamate]	> 6.52
CC(C)(OC(=O)Nc1ccc(-c2cccnc2CNC(N)=O)c(Cc2ccccc2C#N)c1F)C(F)F [Example A-37, 1,1-Difluoro-2-methylpropan-2-yl (3-(2-cyanobenzyl)-2-fluoro-4-(2-(ureidomethyl)pyridin-3-yl)phenyl)carbamate]	4.52 to 6.52
CC(C)(C)OC(=O)Nc1ccc(-c2cccnc2CCC(N)=O)c(Cc2ccccc2S(C)(=O)=O)c1F [Example A-40, tert-Butyl (4-(2-(3-amino-3-oxopropyl)pyridin-3-yl)-2-fluoro-3-(2-(methylsulfonyl)benzyl)phenyl)carbamate]	4.52 to 6.52
NC(=O)NCc1ncccc1-c1ccc(NC(=O)OCC2CC2)c(F)c1Cc1ccccc1F [Example A-31, Cyclopropylmethyl (2-fluoro-3-(2-fluorobenzyl)-4-(2-(ureidomethyl)pyridin-3-yl)phenyl)carbamate]	> 6.52
CC(C)(C)OC(=O)Nc1ccc(-c2cccnc2CNC(N)=O)c(Cc2ccccc2O)c1F [Example A-19, tert-Butyl (2-fluoro-3-(2-hydroxybenzyl)-4-(2-(ureidomethyl)pyridin-3-yl)phenyl)carbamate]	> 6.52
CC(C)(C#N)COC(=O)Nc1ccc(-c2cccnc2CNC(N)=O)c(Cc2ccccc2F)c1F [Example A-7]	> 6.52
NC(=O)NCc1ncccc1-c1ccc(NC(=O)OCc2ccccc2F)c(F)c1Cc1ccccc1F [Example A-36]	> 6.52
CC(C)(CO)OC(=O)Nc1ccc(-c2cccnc2CNC(N)=O)c(Cc2ccccc2F)c1F [Example A-21, 1-Hydroxy-2-methylpropan-2-yl (2-fluoro-3-(2-fluorobenzyl)-4-(2-(ureidomethyl)pyridin-3-yl)phenyl)carbamate]	4.52 to 6.52
CC(C)(C)OC(=O)Nc1ccc(-c2cccnc2CCC(N)=O)c(Cc2ccccc2C#N)c1F [Example A-39, tert-Butyl (4-(2-(3-amino-3-oxopropyl)pyridin-3-yl)-3-(2-cyanobenzyl)-2-fluorophenyl)carbamate]	> 6.52
CC(C)(COCc1ccccc1)OC(=O)Nc1ccc(-c2cccnc2CNC(N)=O)c(Cc2ccccc2F)c1F [Example A-20, 1-(Benzyloxy)-2-methylpropan-2-yl (2-fluoro-3-(2-fluorobenzyl)-4-(2-(ureidomethyl)pyridin-3-yl)phenyl)carbamate]	> 6.52
NC(=O)NCc1ncccc1-c1ccc(NC(=O)OC2CN3CCC2CC3)c(F)c1Cc1ccccc1F (stereo not drawn) [Example A-29, (2-Fluoro-3-(2-fluorobenzyl)-4-(2-(ureidomethyl)pyridine-3-yl)phenyl)carbamate quinuclidine-3-yl]	4.52 to 6.52
CC(C)(C)OC(=O)Nc1ccc(-c2cccnc2CNC(N)=O)c(Cc2ccccc2C#N)c1F [Example A-2, tert-Butyl (3-(2-cyanobenzyl)-2-fluoro-4-(2-(ureidomethyl)pyridin-3-yl)phenyl)carbamate]	4.52 to 6.52
NC(=O)NCc1ncccc1-c1ccc(NC(=O)OCC2CC(F)(F)C2)c(F)c1Oc1ccccc1F [Example B-4]	> 6.52
CC(C)(C)OC(=O)Nc1ccc(-c2cccnc2CNC(N)=O)c(Cc2cccc(F)c2)c1F [Example A-15]	4.52 to 6.52
NC(=O)NCc1nnccc1-c1ccc(NC(=O)OC2(C3CC3)CC2)c(F)c1Cc1ccccc1F [Example C-10]	4.52 to 6.52
NC(=O)NCc1ncccc1-c1ccc(NC(=O)O[C@H]2C[C@H](F)C2)c(F)c1Cc1ccccc1F [Example A-5, trans-3-Fluorocyclobutyl (2-fluoro-3-(2-fluorobenzyl)-4-(2-(ureidomethyl)pyridin-3-yl)phenyl)carbamate]	> 6.52
CC1(OC(=O)Nc2ccc(-c3cccnc3CNC(N)=O)c(Cc3ccccc3F)c2F)CC1 [Example A-4, 1-Methylcyclopropyl (2-fluoro-3-(2-fluorobenzyl)-4-(2-(ureidomethyl)pyridin-3-yl)phenyl)carbamate]	> 6.52
NC(=O)NCc1ncccc1-c1ccc(NC(=O)OC2CCOC2)c(F)c1Cc1ccccc1F (stereo not drawn) [Example A-28]	4.52 to 6.52
COc1ccccc1Cc1c(-c2cccnc2CNC(N)=O)ccc(NC(=O)OC(C)(C)C)c1F [Example A-17, tert-Butyl (2-fluoro-3-(2-methoxybenzyl)-4-(2-(ureidomethyl)pyridin-3-yl)phenyl)carbamate]	4.52 to 6.52
NC(=O)NCc1ncccc1-c1ccc(NC(=O)OC2CC2)c(F)c1Cc1ccccc1F [Example A-26, Cyclopropyl (2-fluoro-3-(2-fluorobenzyl)-4-(2-(ureidomethyl)pyridin-3-yl)phenyl)carbamate]	4.52 to 6.52
CC(C)(C)OC(=O)Nc1ccc(-c2cccnc2CNC(N)=O)c(Cc2ccc(F)cc2)c1F [Example A-16]	> 6.52

More lines, now with the values ahead:

pIC50	Structure (SMILES)
4.52 to 6.52	CC(C)(C)OC(=O)Nc1ccc(-c2cccnc2CNC(N)=O)c(C(=O)c2ccccc2C(F)(F)F)c1F [Example E-2]
4.52 to 6.52	NC(=O)NCc1ncccc1-c1ccc(NC(=O)N2CCCC2)c(F)c1Cc1ccccc1F [Example G-6]
4.52 to 6.52	CC1(C(=O)Nc2ccc(-c3cccnc3CNC(N)=O)c(Cc3ccccc3F)c2F)CC1 [Example G-1, N-(2-Fluoro-3-(2-fluorobenzyl)-4-(2-(ureidomethyl)pyridin-3-yl)phenyl)-1-methylcyclopropane-1-carboxamide]
4.52 to 6.52	NC(=O)CCc1ncccc1-c1ccc(NC(=O)OC2CC(F)(F)C2)c(F)c1C(=O)c1ccccc1C(F)(F)F [Example E-9, 3,3-Difluorocyclobutyl (4-(2-(3-amino-3-oxopropyl)pyridin-3-yl)-2-fluoro-3-(2-(trifluoromethyl)benzoyl)phenyl)carbamate]
4.52 to 6.52	NC(=O)NCc1ncccc1-c1ccc(NC(=O)C2CCCO2)c(F)c1Cc1ccccc1F (stereo not drawn) [Example G-5]
4.52 to 6.52	NC(=O)NCc1ncccc1-c1ccc(NC(=O)C2CC2)c(F)c1Cc1ccccc1F [Example G-3, N-(2-Fluoro-3-(2-fluorobenzyl)-4-(2-(ureidomethyl)pyridin-3-yl)phenyl)cyclopropanecarboxamide]
4.52 to 6.52	CC(C)(C)OC(=O)Nc1ccc(-c2cccnc2CNC(N)=O)c(CN2CCCC(F)(F)C2)c1F [Example F-6, tert-Butyl (3-((3,3-difluoropiperidin-1-yl)methyl)-2-fluoro-4-(2-(ureidomethyl)pyridin-3-yl)phenyl)carbamate]
< 4.52	CC(C)(C)OC(=O)Nc1ccc(-c2cccnc2CNC(N)=O)c(C(=O)N2CCOCC2)c1F [Example F-8, tert-Butyl (2-fluoro-3-(morpholine-4-carbonyl)-4-(2-(ureidomethyl)pyridin-3-yl)phenyl)carbamate]
4.52 to 6.52	CC(C)(C)OC(=O)Nc1ccc(-c2cccnc2CCC(N)=O)c(Cc2ncccc2F)c1F [Example F-2, tert-Butyl (4-(2-(3-amino-3-oxopropyl)pyridin-3-yl)-2-fluoro-3-((3-fluoropyridin-2-yl)methyl)phenyl)carbamate]
> 6.52	NC(=O)CCc1ncccc1-c1ccc(NC(=O)OCC2CC(F)(F)C2)c(F)c1C(=O)c1ccccc1F [Example E-7]
4.52 to 6.52	CC(C)(C)OC(=O)Nc1ccc(-c2cccnc2CNC(N)=O)c(Cc2ncccc2F)c1F [Example F-1, tert-Butyl (2-fluoro-3-((3-fluoropyridin-2-yl)methyl)-4-(2-(ureidomethyl)pyridin-3-yl)phenyl)carbamate]
